Tests used:
primary mouse RGCs = assay: Retinal ganglion cell (RGC) viability assay (CellTiter-Glo); assay type: cell-based; details: concentrations as high as 10 mg/mL; with 1 μM sunitinib malate; 72 h
Experimental: Mouse RGCs were purified as described ny Welsbie, D. S., et al., Proceedings of the National Academy of Sciences of the United States of America, 2013. 110(10): p. 4045-4050. Purified cells were plated on a poly-D-lysine/laminin coated 384-well culture dish at 4,000 cells per well and cultured in Neurobasal media supplemented with B-27, N-2, L-glutamine, and penicillin/streptomycin. Sunitinib malate (1 μM) was dissolved in dimethyl sulfoxide (DMSO) and added at the same time cells were plated (250 nL into 50 μL of media) to promote RGC survival. Then, either PBS or different volumes of sodium pamoate dissolved in DMSO was added at the concentrations indicated (0.1, 1, 10 mg/mL) to determine whether there was any effect on RGC survival. A PBS control was included for each pamoic acid concentration to account for dilutional effects. After cells were cultured for 72 h at 37° C., viability was measured by CellTiter-Glo (Promega) luminescence.

physchem = details: 37 °C, aqueous buffer, thermodynamic from solid
Experimental: To measure solubility, 5 mg of sunitinib malate or SPC complex was placed in microcentrifuge tubes with 1 mL of PBS. The samples were then placed on an orbital shaker (150 rpm) in an incubator at 37° C. After 7 days, samples were collected and centrifuged at 17,000 rcf for 30 min. The supernatant was collected, and concentrations were measured using HPLC (Shimadzu Prominence LC-20). Supernatant samples were mixed 1:10 with acetonitrile containing 0.1% trifluoroacetic acid. Acetonitrile and water was used as a mobile phase at a ratio of 55:45. Samples were eluted isocratically at a flow rate of 1 mL/min through a C18-reversed phase column at 40° C. UV absorbance was monitored at 431 nm.

[1] = tested on: corneal neovascularization; details: rats; cited from earlier work

| solubility at 7 days (physchem) | SMILES | effect on primary mouse RGC survival compared to PBS (primary mouse RGCs) | effect on corneal neovascularization after subconjunctival injection [1] |
| --- | --- | --- | --- |
|  | O=C(O)c1cc2ccccc2c(Cc2c(O)c(C(=O)O)cc3ccccc23)c1O [Pamoic acid] | no detrimental effect |  |
| 525 ± 63 µg/mL | CCN(CC)CCNC(=O)c1c(C)[nH]c(/C=C2\C(=O)Nc3ccc(F)cc32)c1C [sunitinib malate, Sunitinib malate] |  | no effect on neovascularization |

— patent publication US20240189277A1, “OPHTHALMIC FORMULATIONS FOR SUSTAINED NEUROPROTECTION” (priority 2021, published 2024)
